# Test results published in patent US12258327B2, “5-membered heteroaryl-containing aminopyridine compounds as EGFR inhibitors” (YUHAN CORPORATION, priority 2021, dated 2025).
# pIC50: −log10 of the molar value. Where two headings read alike, the source gives them in different places.
# Legend:
# [1] = biological target: EGFR del19/T790M/C797S (Homo sapiens, UniProt P00533, C797S/DEL746-750/T790M); assay: Biochemical EGFR kinase assay (Lance Ultra TR-FRET), triple mutant del19/T790M/C797S
# How it was run: (§1)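 In this biochemical assay, phosphorylation after a one-hour room-temperature reaction was detected with europium-labelled anti-phosphopeptide antibody at 2 nM final concentration.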
# [2] = biological target: EGFR L858R/T790M/C797S (Homo sapiens, UniProt P00533, C797S/L858R/T790M); assay: Biochemical EGFR kinase assay (Lance Ultra TR-FRET), triple mutant L858R/T790M/C797S
# How it was run: as §1
# [3] = biological target: EGFR del19/C797S (Homo sapiens, UniProt P00533, C797S/DEL746-750); assay: Biochemical EGFR kinase assay (Lance Ultra TR-FRET), double mutant del19/C797S
# How it was run: as §1
# [4] = biological target: EGFR L858R/C797S (Homo sapiens, UniProt P00533, C797S/L858R); assay: Biochemical EGFR kinase assay (Lance Ultra TR-FRET), double mutant L858R/C797S
# How it was run: as §1
# [5] = biological target: EGFR wildtype (WT) (Homo sapiens, UniProt P00533); assay: Biochemical EGFR kinase assay (Lance Ultra TR-FRET), wildtype
# How it was run: as §1
# [6] = Km ATP, read-out: IC50 del19/T790M/C797S, Km ATP
# [7] = Km ATP, read-out: IC50 L858R/T790M/C797S, Km ATP
# [8] = Km ATP, read-out: IC50 del19/C797S, Km ATP
# [9] = Km ATP, read-out: IC50 L858R/C797S, Km ATP
# [10] = Km ATP, read-out: IC50 WT, Km ATP
# [11] = IC50 del19/T790M/C797S, 100 μM ATP
# [12] = IC50 L858R/T790M/C797S, 100 μM ATP
# EGFR del19/C797S, sequence (P00533 with tags, fused parts or gaps DEL746-750/C797S): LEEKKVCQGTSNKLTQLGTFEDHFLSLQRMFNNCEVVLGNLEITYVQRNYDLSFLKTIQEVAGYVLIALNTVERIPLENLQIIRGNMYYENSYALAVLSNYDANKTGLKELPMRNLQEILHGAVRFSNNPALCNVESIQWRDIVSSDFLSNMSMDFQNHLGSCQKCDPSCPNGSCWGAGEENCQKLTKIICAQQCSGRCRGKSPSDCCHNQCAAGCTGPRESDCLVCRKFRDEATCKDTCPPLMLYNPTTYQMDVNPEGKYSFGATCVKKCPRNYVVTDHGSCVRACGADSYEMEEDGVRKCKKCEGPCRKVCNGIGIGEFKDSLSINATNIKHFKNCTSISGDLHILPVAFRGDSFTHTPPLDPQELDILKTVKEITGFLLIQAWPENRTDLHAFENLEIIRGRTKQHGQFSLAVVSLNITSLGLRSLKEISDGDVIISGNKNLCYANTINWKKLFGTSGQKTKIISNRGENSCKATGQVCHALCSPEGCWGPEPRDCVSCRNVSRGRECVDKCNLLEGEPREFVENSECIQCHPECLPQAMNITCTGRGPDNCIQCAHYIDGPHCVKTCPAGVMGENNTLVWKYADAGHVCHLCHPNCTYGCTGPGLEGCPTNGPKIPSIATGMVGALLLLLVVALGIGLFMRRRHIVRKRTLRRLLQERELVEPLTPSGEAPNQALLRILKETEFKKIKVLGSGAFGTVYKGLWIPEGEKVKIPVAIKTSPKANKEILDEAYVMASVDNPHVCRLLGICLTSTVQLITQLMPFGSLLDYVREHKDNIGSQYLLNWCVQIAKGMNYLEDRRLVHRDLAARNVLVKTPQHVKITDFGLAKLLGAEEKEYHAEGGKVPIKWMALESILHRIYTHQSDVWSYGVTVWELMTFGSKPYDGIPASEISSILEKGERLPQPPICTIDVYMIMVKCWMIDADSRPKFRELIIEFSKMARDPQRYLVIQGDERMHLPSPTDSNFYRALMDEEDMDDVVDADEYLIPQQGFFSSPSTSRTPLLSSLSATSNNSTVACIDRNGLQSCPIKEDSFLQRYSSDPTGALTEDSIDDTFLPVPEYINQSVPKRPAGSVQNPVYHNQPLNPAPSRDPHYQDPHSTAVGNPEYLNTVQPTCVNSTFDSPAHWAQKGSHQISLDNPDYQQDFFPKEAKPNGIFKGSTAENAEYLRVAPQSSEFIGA
# EGFR del19/T790M/C797S, sequence (P00533 with tags, fused parts or gaps DEL746-750/T790M/C797S): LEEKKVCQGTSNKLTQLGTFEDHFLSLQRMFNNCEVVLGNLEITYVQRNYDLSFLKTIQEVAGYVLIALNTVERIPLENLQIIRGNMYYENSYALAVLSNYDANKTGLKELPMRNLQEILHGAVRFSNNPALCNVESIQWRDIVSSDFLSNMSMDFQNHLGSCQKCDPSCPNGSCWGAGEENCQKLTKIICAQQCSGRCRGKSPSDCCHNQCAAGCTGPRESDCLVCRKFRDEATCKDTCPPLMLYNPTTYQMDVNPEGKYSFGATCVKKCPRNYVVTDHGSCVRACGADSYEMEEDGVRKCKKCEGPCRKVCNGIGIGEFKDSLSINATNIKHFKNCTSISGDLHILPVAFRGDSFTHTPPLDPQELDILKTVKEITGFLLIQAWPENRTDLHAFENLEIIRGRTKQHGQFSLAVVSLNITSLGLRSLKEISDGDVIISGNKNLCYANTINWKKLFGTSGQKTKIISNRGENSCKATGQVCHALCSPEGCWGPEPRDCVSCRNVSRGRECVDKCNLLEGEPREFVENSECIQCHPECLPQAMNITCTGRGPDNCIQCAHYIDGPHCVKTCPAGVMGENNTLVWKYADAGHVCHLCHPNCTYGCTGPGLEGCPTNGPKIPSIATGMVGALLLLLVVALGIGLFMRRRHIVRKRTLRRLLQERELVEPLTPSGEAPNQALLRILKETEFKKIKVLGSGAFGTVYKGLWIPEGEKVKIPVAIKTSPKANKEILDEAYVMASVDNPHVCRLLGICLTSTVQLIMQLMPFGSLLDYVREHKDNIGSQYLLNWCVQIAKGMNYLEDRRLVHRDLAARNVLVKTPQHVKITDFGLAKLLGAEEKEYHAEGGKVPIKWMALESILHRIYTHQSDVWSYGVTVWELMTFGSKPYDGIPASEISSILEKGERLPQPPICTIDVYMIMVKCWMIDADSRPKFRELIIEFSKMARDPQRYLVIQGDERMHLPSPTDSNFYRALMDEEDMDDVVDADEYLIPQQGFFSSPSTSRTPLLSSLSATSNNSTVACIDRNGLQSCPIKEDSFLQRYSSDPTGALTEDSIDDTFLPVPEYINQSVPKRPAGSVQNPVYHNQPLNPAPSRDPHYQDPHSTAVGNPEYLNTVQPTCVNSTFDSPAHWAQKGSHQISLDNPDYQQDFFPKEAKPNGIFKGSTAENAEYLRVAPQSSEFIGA
# EGFR wildtype (WT), sequence (P00533 25-1210): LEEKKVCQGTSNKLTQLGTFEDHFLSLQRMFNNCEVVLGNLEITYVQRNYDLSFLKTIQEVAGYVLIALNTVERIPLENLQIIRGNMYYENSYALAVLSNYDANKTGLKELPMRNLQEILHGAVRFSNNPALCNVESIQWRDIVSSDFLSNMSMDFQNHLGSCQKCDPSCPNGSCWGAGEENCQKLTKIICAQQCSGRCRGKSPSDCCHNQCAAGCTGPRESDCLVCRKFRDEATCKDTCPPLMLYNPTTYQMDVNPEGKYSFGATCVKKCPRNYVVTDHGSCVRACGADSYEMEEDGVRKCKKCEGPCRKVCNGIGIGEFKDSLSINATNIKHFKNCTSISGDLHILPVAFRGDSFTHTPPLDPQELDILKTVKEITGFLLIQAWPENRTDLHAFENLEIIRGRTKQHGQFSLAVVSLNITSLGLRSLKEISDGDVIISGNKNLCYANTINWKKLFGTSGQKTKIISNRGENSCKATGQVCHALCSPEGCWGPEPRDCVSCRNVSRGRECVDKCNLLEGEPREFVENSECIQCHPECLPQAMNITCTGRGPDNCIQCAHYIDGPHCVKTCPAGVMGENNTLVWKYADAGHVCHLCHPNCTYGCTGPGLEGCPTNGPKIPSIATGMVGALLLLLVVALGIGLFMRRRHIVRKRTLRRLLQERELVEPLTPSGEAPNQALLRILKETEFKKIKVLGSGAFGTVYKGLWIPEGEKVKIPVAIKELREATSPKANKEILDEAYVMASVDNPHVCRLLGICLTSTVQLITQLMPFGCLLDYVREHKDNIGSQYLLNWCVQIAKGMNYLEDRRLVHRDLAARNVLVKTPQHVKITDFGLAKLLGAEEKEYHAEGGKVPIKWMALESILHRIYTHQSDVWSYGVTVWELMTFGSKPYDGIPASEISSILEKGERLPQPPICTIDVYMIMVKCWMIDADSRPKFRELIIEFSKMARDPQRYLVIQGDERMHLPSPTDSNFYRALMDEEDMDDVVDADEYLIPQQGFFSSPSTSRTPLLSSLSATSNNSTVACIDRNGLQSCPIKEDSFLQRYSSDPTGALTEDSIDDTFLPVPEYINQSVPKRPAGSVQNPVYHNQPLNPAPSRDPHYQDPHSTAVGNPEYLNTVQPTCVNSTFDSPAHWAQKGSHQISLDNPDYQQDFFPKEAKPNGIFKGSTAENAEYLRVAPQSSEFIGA
# EGFR L858R/T790M/C797S, sequence (P00533 25-1210 T790M/C797S/L858R): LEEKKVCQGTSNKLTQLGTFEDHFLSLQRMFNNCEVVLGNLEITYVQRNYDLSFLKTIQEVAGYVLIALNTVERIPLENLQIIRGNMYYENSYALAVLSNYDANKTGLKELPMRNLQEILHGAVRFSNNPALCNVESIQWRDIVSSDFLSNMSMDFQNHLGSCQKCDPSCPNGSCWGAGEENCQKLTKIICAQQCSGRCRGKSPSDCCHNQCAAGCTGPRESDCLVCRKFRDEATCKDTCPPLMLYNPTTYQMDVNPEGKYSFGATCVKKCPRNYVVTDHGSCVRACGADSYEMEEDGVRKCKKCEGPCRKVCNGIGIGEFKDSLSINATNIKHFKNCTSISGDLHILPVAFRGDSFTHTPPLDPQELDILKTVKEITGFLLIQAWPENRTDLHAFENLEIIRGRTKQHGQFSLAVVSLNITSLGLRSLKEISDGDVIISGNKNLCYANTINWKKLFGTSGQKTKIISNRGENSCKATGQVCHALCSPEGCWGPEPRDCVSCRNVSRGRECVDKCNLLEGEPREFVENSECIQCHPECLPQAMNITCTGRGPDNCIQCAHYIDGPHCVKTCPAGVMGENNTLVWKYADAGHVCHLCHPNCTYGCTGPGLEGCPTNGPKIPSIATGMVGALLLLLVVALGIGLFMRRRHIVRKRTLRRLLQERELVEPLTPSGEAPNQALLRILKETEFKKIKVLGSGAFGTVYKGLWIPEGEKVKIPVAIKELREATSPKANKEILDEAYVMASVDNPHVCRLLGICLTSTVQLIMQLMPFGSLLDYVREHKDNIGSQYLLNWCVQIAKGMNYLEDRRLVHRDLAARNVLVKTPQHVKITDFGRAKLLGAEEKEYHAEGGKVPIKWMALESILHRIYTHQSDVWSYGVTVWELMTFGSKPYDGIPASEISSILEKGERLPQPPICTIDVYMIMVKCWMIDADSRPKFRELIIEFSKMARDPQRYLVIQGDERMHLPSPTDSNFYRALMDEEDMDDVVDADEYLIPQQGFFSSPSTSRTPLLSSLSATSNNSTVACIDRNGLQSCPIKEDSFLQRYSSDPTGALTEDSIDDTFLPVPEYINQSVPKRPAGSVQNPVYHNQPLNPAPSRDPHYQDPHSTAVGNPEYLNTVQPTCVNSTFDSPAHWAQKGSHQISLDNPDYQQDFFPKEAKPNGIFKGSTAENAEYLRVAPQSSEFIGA
"pIC50 [1, 6]","pIC50 [2, 7]","pIC50 [3, 8]","pIC50 [4, 9]","pIC50 [5, 10]","pIC50 [1, 11]","pIC50 [2, 12]","pIC50 ([3]; IC50 del19/C797S, 100 μM ATP)","pIC50 ([4]; IC50 L858R/C797S, 100 μM ATP)","pIC50 ([5]; IC50 WT, 100 μM ATP)",Compound
8.64,8.59,7.92,8.17,6.85,,,,,,"Cn1nc(-c2cnc(Nc3ccnc(-c4cnn(CC(F)F)c4)n3)cc2N[C@H]2CC[C@@](C)(O)CC2)cc1C(F)(F)F [Example 331, (1s,4s)-4-((2-((2-(1-(2,2-Difluoroethyl)-1H-pyrazol-4-yl)pyrimidin-4-yl)amino)-5-(1-methyl-5-(trifluoromethyl)-1H-pyrazol-3-yl)pyridin-4-yl)amino)-1-methylcyclohexan-1-ol]"
8.80,9.15,8.10,8.34,7.01,,,,,,"Cc1nn(CC(F)(F)F)cc1-c1nccc(Nc2cc(N[C@H]3CC[C@@](C)(O)CC3)c(-c3ccn(CC(F)F)n3)cn2)n1 [Example 335, (1s,4s)-4-((5-(1-(2,2-Difluoroethyl)-1H-pyrazol-3-yl)-2-((2-(3-methyl-1-(2,2,2-trifluoroethyl)-1H-pyrazol-4-yl)pyrimidin-4-yl)amino)pyridin-4-yl)amino)-1-methylcyclohexan-1-ol]"
9.15,9.40,7.88,8.41,7.35,,,,,,"OCC[C@H]1CC[C@@H](Nc2cc(Nc3ccnc(-c4cnn(CC(F)F)c4)n3)ncc2-c2ccn(CC(F)(F)F)n2)CC1 [Example 338, 2-((1s,4s)-4-((2-((2-(1-(2,2-Difluoroethyl)-1H-pyrazol-4-yl)pyrimidin-4-yl)amino)-5-(1-(2,2,2-trifluoroethyl)-1H-pyrazol-3-yl)pyridin-4-yl)amino)cyclohexyl)ethan-1-ol]"
8.54,9.40,5.97,6.95,6.37,,,,,,"FC(F)Cn1cc(-c2nccc(Nc3cc(N[C@H]4CC[C@@H](F)CC4)c(-c4ccn(CC(F)(F)F)n4)cn3)n2)cn1 [Example 339, N^2-(2-(1-(2,2-Difluoroethyl)-1H-pyrazol-4-yl)pyrimidin-4-yl)-N^4-((1s,4s)-4-fluorocyclohexyl)-5-(1-(2,2,2-trifluoroethyl)-1H-pyrazol-3-yl)pyridine-2,4-diamine]"
9.30,9.52,7.67,8.17,6.76,,,,,,"C[C@]1(O)CC[C@@H](Nc2cc(Nc3ccnc(-c4cnn(CC(F)F)c4)n3)ncc2-c2ccn(C(F)(F)F)n2)CC1 [Example 340, (1s,4s)-4-((2-((2-(1-(2,2-Difluoroethyl)-1H-pyrazol-4-yl)pyrimidin-4-yl)amino)-5-(1-(trifluoromethyl)-1H-pyrazol-3-yl)pyridin-4-yl)amino)-1-methylcyclohexan-1-ol]"
9.70,10.00,8.74,8.89,8.57,,,,,,"CN1CCC(n2ccc(-c3cnc(Nc4ccnc(-c5cnn(CC(F)F)c5)n4)cc3N[C@H]3CC[C@@](C)(O)CC3)n2)CC1 [Example 342, (1s,4s)-4-((2-((2-(1-(2,2-Difluoroethyl)-1H-pyrazol-4-yl)pyrimidin-4-yl)amino)-5-(1-(1-methylpiperidin-4-yl)-1H-pyrazol-3-yl)pyridin-4-yl)amino)-1-methylcyclohexan-1-ol]"
10.00,9.70,8.33,9.52,7.45,,,,,,"C[C@]1(O)CC[C@@H](Nc2cc(Nc3ccnc(-c4cnn(CC(F)F)c4)n3)ncc2-c2ccn(CC(F)F)n2)CC1 [Example 343, (1s,4s)-4-((5-(1-(2,2-Difluoroethyl)-1H-pyrazol-3-yl)-2-((2-(1-(2,2-difluoroethyl)-1H-pyrazol-4-yl)pyrimidin-4-yl)amino)pyridin-4-yl)amino)-1-methylcyclohexan-1-ol]"
9.40,9.40,7.53,9.70,7.23,,,,,,"C[C@]1(O)CC[C@@H](Nc2cc(Nc3ccnc(-c4cnn(CC(F)(F)F)c4)n3)ncc2-c2ccn(CC(F)F)n2)CC1 [Example 344, (1s,4s)-4-((5-(1-(2,2-Difluoroethyl)-1H-pyrazol-3-yl)-2-((2-(1-(2,2,2-trifluoroethyl)-1H-pyrazol-4-yl)pyrimidin-4-yl)amino)pyridin-4-yl)amino)-1-methylcyclohexan-1-ol]"
9.40,9.05,8.34,9.52,7.65,,,,,,"C[C@]1(O)CC[C@@H](Nc2cc(Nc3nc(-c4cnn(S(=O)(=O)C5CC5)c4)ncc3F)ncc2-c2ccn(CC(F)F)n2)CC1 [Example 345, (1s,4s)-4-((2-((2-(1-(Cyclopropylsulfonyl)-1H-pyrazol-4-yl)-5-fluoropyrimidin-4-yl)amino)-5-(1-(2,2-difluoroethyl)-1H-pyrazol-3-yl)pyridin-4-yl)amino)-1-methylcyclohexan-1-ol]"

# The next lines start with the compound.
Compound,"pIC50 [1, 6]","pIC50 [2, 7]","pIC50 [3, 8]","pIC50 [4, 9]","pIC50 [5, 10]","pIC50 [1, 11]","pIC50 [2, 12]","pIC50 ([3]; IC50 del19/C797S, 100 μM ATP)","pIC50 ([4]; IC50 L858R/C797S, 100 μM ATP)","pIC50 ([5]; IC50 WT, 100 μM ATP)"
"Cc1nn(CC(F)(F)F)cc1-c1nccc(Nc2cc(N[C@H]3CC[C@@](C)(O)CC3)c(-c3cc(C(F)(F)F)n(C)n3)cn2)n1 [Example 332, (1s,4s)-1-Methyl-4-((2-((2-(3-methyl-1-(2,2,2-trifluoroethyl)-1H-pyrazol-4-yl)pyrimidin-4-yl)amino)-5-(1-methyl-5-(trifluoromethyl)-1H-pyrazol-3-yl)pyridin-4-yl)amino)cyclohexan-1-ol]",8.23,8.49,8.00,8.22,7.01,,,,,
"Cc1nn(CC(F)(F)F)cc1-c1nccc(Nc2cc(N[C@H]3CC[C@@H](CCO)CC3)c(-c3cc(C(F)(F)F)n(C)n3)cn2)n1 [Example 334, 2-((1s,4s)-4-((2-((2-(3-Methyl-1-(2,2,2-trifluoroethyl)-1H-pyrazol-4-yl)pyrimidin-4-yl)amino)-5-(1-methyl-5-(trifluoromethyl)-1H-pyrazol-3-yl)pyridin-4-yl)amino)cyclohexyl)ethan-1-ol]",8.38,8.55,7.39,7.77,7.61,,,,,
"O=S(=O)(C1CC1)n1cc(-c2ncc(F)c(Nc3cc(N[C@H]4CC[C@@H](CCO)CC4)c(-c4ccn(CC(F)F)n4)cn3)n2)cn1 [Example 336, 2-((1s,4s)-4-((2-((2-(1-(Cyclopropylsulfonyl)-1H-pyrazol-4-yl)-5-fluoropyrimidin-4-yl)amino)-5-(1-(2,2-difluoroethyl)-1H-pyrazol-3-yl)pyridin-4-yl)amino)cyclohexyl)ethan-1-ol]",9.00,8.96,7.43,7.69,5.59,,,,,
"Cc1nn(CC(F)(F)F)cc1-c1nccc(Nc2cc(N[C@H]3CC[C@@H](CCO)CC3)c(-c3ccn(CC(F)F)n3)cn2)n1 [Example 337, 2-((1s,4s)-4-((5-(1-(2,2-Difluoroethyl)-1H-pyrazol-3-yl)-2-((2-(3-methyl-1-(2,2,2-trifluoroethyl)-1H-pyrazol-4-yl)pyrimidin-4-yl)amino)pyridin-4-yl)amino)cyclohexyl)ethan-1-ol]",9.10,9.30,8.21,8.43,8.05,,,,,
"CC1(O)CCC(Nc2cc(Nc3ccnc(N4CC(CO)C(F)(F)C4)n3)ncc2-c2ccn(C(F)F)n2)CC1 (stereo not shown) [Example 346, (1s,4s)-4-((2-((2-(3,3-Difluoro-4-(hydroxymethyl)pyrrolidin-1-yl)pyrimidin-4-yl)amino)-5-(1-(difluoromethyl)-1H-pyrazol-3-yl)pyridin-4-yl)amino)-1-methylcyclohexan-1-ol]",,,,,6.48,8.20,8.43,6.91,6.39,< 5.00
"CC1(O)CCC(Nc2cc(Nc3ccnc(N4CC(CO)C(C)(C)C4)n3)ncc2-c2ccn(C(F)F)n2)CC1 (stereo not shown) [Example 347, (1s,4s)-4-((5-(1-(Difluoromethyl)-1H-pyrazol-3-yl)-2-((2-(4-(hydroxymethyl)-3,3-dimethylpyrrolidin-1-yl)pyrimidin-4-yl)amino)pyridin-4-yl)amino)-1-methylcyclohexan-1-ol]",8.72,9.15,7.00,7.32,6.40,8.51,8.72,6.48,6.35,< 5.00
"CC1(O)CCC(Nc2cc(Nc3ccnc(N4CCC(O)C(F)(F)C4)n3)ncc2-c2ccn(C(F)F)n2)CC1 (stereo not shown) [Example 348, 1-(4-((5-(1-(Difluoromethyl)-1H-pyrazol-3-yl)-4-(((1s,4s)-4-hydroxy-4-methylcyclohexyl)amino)pyridin-2-yl)amino)pyrimidin-2-yl)-3,3-difluoropiperidin-4-ol]",9.30,9.70,6.87,7.84,6.84,8.46,9.22,6.87,6.83,< 5.00
